The text below walks through data of patent US20230331739A1, “INDOLO HEPTAMYL OXIME ANALOG CRYSTAL AS PARP INHIBITOR AND METHOD FOR PREPARING SAME” (CHIA TAI TIANQING PHARMACEUTICAL GROUP CO., LTD., priority 2020, published 2023).

In series [1] the target is CYP2C19 (Homo sapiens (Human), UniProt P33261). Description: Inhibition against cytochrome P450 isoenzymes, CYP2C19. It counts as in vitro ADME. Particulars: human liver microsomes. Here is the method:
(§1) The inhibition of the test compound against different subtypes of the human cytochrome P450 isoenzyme was determined. The test compound, a standard inhibitor (100×final concentration) and a mixed substrate working solution were prepared; the microsomes frozen in a refrigerator at −80° C. were taken out and thawed. […]
A general note: Liver microsomes are vesicles of endoplasmic reticulum, rich in cytochrome P450 enzymes.

Series [2] concerns the target PARP1 (Homo sapiens (Human), UniProt P09874). As to the kind of experiment: PARP-1 enzymatic assay (HT Universal Chemiluminescent PARP Assay kit). It counts as biochemical. Here is the method: Materials: test compounds; HT Universal Chemiluminescent PARP Assay kit (purchased from TREVIGEN); PBS (phosphate buffer saline, purchased from Wisent); Triton X-100 (purchased from Macklin); Envision Multimode Plate Reader (PerkinElmer).
1. Washing solution: Triton X-100 was added to 1×PBS with a final concentration of Triton X-100 of 0.1%.
2. 1×PARP buffer: The 20×PARP buffer in the kit was 20-fold diluted with water to prepare a 1×PARP buffer, which was used to prepare the compounds, enzyme solutions and substrate solutions.
3. 1×Strep-Diluent solution: The 10×Strep-diluent in the kit was 10-fold diluted with water to prepare a 1×Strep-diluent solution.
The test compounds were diluted from 200 μM to 2.56 nM. The DMSO concentration was 100%. 2 μL of each of the inhibitors at various concentration gradients was added to a compound intermediate plate, and 38 μL of the 1×PARP buffer was then added. The two were mixed well for use, and the DMSO concentration was 5% at this time.
a) The 1×PARP buffer was added to a test plate at 50 μL per well, and the test plate was incubated at 25° C. for 30 min. […]
PeroxyGlow A and B in the kit were mixed at a ratio of 1:1, and the mixed solution was added to the test plate at 100 μL per well. Chemiluminescence was immediately read using a PerkinElmer Envision Multimode Plate Reader with an integration time of 0.5 s. […]

The target in series [3] is CYP2C9 (Homo sapiens (Human), UniProt P11712). As to the kind of experiment: Inhibition against cytochrome P450 isoenzymes, CYP2C9. It counts as in vitro ADME. The following applies: human liver microsomes. The procedure:
as §1

Series [4] in a line: Metabolic stability in liver microsomes, mouse. In kind it is in vitro ADME. Particulars: 1 μM, 0.5 mg/mL. Here is the method:
Objective: To test the metabolic stability of the test compound in liver microsomes of three species.
Procedures: 1 μM test compound and microsomes (0.5 mg/mL) were incubated at 37° C. in the presence of an NADPH regeneration system. Positive controls were testosterone ([…]), propylamine propiophenone (2D6 substrate) and diclofenac (2C9 substrate). At 37° C., positive controls were incubated with microsomes (0.5 mg/mL) in the presence of an NADPH regeneration system. The reaction was stopped by direct mixing of the sample with cold acetonitrile containing an internal standard at various time points (0, 5, 10, 20, 30 and 60 min). The compound and microsomes were incubated for 60 min in the absence of an NADPH regeneration system. One replicate (n=1) was set at each time point. The samples were analyzed by LC/MS/MS; the concentration of the compound was characterized by the ratio of the analyte peak area to the internal standard peak area.

CYP2C19, sequence (P33261 whole entry): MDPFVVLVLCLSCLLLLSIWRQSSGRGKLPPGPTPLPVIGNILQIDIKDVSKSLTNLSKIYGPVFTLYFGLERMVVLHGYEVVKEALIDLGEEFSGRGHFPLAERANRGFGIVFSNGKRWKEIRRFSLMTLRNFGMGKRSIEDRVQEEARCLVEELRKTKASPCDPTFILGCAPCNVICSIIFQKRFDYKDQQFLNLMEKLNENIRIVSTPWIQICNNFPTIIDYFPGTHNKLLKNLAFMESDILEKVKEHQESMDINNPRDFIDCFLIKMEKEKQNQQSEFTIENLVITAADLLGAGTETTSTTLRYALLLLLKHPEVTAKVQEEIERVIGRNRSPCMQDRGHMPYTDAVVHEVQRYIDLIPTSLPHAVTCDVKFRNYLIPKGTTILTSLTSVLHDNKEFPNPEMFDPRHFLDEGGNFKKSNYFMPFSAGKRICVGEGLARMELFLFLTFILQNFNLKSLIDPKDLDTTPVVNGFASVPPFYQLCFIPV
CYP2C9, sequence (P11712 whole entry): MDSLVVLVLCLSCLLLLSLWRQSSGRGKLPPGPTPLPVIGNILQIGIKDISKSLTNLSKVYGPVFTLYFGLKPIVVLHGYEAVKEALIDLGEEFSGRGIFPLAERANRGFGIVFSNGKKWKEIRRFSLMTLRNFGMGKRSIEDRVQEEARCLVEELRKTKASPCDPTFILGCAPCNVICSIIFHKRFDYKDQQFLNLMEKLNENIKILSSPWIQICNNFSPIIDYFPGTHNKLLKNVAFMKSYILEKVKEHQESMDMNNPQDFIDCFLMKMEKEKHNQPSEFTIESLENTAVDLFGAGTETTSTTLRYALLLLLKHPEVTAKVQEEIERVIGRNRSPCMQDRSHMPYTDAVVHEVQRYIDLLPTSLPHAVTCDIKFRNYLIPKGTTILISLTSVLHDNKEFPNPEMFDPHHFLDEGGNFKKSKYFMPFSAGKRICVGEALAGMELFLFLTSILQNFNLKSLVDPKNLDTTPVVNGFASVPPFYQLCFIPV
PARP1, sequence (P09874 whole entry): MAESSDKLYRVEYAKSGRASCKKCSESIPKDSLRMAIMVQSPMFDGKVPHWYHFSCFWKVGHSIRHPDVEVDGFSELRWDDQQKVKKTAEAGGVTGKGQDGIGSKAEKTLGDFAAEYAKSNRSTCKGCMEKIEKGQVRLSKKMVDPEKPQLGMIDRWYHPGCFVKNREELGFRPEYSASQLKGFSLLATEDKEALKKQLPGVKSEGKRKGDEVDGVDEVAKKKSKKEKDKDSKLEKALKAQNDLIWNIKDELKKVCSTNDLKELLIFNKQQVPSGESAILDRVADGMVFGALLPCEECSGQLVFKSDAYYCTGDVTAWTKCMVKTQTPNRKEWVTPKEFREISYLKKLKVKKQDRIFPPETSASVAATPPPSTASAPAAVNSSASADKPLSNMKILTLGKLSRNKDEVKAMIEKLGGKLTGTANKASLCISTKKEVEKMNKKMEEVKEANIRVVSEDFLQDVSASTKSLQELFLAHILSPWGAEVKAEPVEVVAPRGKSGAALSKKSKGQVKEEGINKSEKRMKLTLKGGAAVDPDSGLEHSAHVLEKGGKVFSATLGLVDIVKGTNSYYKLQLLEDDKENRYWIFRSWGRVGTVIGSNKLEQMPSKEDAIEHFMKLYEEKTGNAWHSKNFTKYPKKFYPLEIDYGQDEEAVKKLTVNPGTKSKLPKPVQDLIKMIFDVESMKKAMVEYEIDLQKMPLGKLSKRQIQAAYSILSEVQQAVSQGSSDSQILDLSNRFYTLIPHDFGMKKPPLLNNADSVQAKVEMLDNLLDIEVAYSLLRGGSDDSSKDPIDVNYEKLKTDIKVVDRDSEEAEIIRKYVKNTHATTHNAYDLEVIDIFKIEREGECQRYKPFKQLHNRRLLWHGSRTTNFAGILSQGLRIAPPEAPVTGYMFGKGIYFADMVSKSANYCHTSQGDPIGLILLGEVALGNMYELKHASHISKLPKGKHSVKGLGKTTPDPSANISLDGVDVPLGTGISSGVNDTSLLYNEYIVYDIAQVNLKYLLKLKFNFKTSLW

A word on the IC50: it is the concentration needed to halve the response being measured. A lower IC50 goes with higher potency. As for `C[C@]1(c2ccc(-c3[nH]c4cc(F)cc5c4c3CONC5=O)cc2)CCCN1` [Compound 1], the IC50 in series [1] was 8.33 µM; in series [2] it was 0.0023 µM; in series [3], > 50 µM. Further, the “Residual content after 60 min of incubation” value in series [4] is 40.7%.
